Assay results: publication PMC8838787, “The Antiproliferative and Apoptotic Effects of a Novel Quinazoline Carrying Substituted-Sulfonamides: In Vitro and Molecular Docking Study” (Molecules, 2022)

Assays:
[1] = tested on: LoVo (colon) cancer cells; assay: MTT cell viability assay, LoVo; assay type: cell-based; conditions: Homo sapiens, 48 h, average ± SD (n = 3)
Description: (§1) Compounds 4a–n were subjected to the cytotoxicity screening of the cell lines MCF-7 (breast), LoVo (colon), HepG2 (liver) and A549 (lung) carcinoma cells as well as HUVEC normal cell lines. The MTT assay was employed to assess cytotoxicity after 48 h of treatment with different concentrations of each compound and doxorubicin was used as a reference drug. The results were presented in Table 1 as growth inhibitory concentration (IC50 values).
(§2) Cell viability was determined using 3-(4,5-dimethylthiazol-2-yl)-2,5-diphenyl tetrazolium bromide (MTT) assay as stated previously. In brief, A549 (lung), HepG2 (liver), LoVo (colon), MCF-7 (breast) cancer cells as well as normal cells (HUVEC) were seeded in 96-well plates (10^5 per well) and compounds were added in a different final concentration. All cells were treated for 48 h, and then 10μL of MTT reagent (5 mg/mL) was added to each well and further incubated for 4 h. Thereafter, 0.1 mL of acidified isopropanol was added to solubilize formazan product and the developed color was measured at 570 nm in Microplate ELISA Reader (BioTek, Elx-800, Winooski, VT, USA). The IC50 values (concentration required for 50% inhibition of cell viability) were calculated using dose response curve. Cell viability was calculated as = (Ab Treated/Ab Control) × 100.
(§3) The A549, HepG2, LoVo and MCF-7 cancer cell lines were obtained from the German Collection of Microorganisms and Cell Cultures (DSMZ) (Braunschweig, Germany). For Human umbilical vein endothelial cells (HUVEC cells), it was purchased from American Type Culture Collection (16549; Cat no. PCS-100-010; ATTCC, Manassas, VA, USA).

A549 (lung) cancer cells = assay: MTT cell viability assay, A549; assay type: cell-based; conditions: average ± SD (n = 3)
Description: as §1, §2, §3

MCF-7 cells = assay: Annexin V-FITC/PI apoptosis detection; assay type: cell-based, human; conditions: 24 h, mean ± SD; for late apoptotic cells: control 1.75 ± 0.07%; for early apoptotic cells: untreated 1.05 ± 0.07%
Description: In addition to cell cycle arrest, apoptosis is another important anticancer process that inhibits cancer cell proliferation. Therefore, we further used a double labeling staining with Annexin V-FITC and PI to investigate apoptotic cell death. Phosphatidylserine exposure on the cell surface is a hallmark of early and late apoptotic cells, which can be easily identified with Annexin V-FITC [27].
Apoptotic cells were detected using Annexin V-FITC/PI staining protocol (BioLegend, San Diego, CA, USA) according to the manufacturer’s recommendations. Briefly, MCF-7 cells were incubated for 24 h with the different doses of promising compounds 4d and 4f. The cells were then harvested, washed twice with cold PBS and re-suspended with 1× Annexin V binding buffer (100 µL). Thereafter, cells were transferred into flow cytometry tube and stained with 5 μL of Annexin V- FITC and 5 μL PI for 15 min at room temperature in the dark. The cells were processed for apoptosis using a FACS Scan Flow Cytometer (Cytomics FC 500; Beckman Coulter, Brea, CA, USA) and analyzed using CXP software V. 3.0.

caspase 7 = assay: Western blot, caspase 7 protein; assay type: cell-based, human; conditions: 24 h, in comparison to the control
Description: (§4) We next used reverse transcription polymerase chain reaction (RT-PCR) and Western blot analysis to look at Bax (proapoptotic), Bcl-2 (antiapoptotic) and caspase 7 (executioner caspase) expression at gene and protein level as an additional marker of apoptosis occurrence. In fact, apoptotic cell death is mostly directed by the levels of Bcl-2 family, whether they are pro-apoptotic or antiapoptotic and targeting these molecules as a therapeutic strategy is continuously under development. As predicted, we observed an upregulation in the expression of Bax in MCF-7 treated cells to (1.7-, 2- and 2.4-fold) with compound 4d and to (1.2-, 1.4- and 1.6-fold) with compound 4f at (1.25, 2.5 and 5 µM) respectively (Figure 6). […] This shifting in Bax to Bcl-2 ratio usually started caspases activation which plays a critical role in apoptosis execution. Among all caspases, caspase 7 is considered as one of the most crucial executioner caspases that mediate cell death, and its expression strongly correlates with apoptosis stimulation.
MCF-7 cells were plated in six well plates at the density of 0.5 × 10^6 and kept for adherence for overnight. On the next day, complete media was replaced with the fresh one and treated the cells with compounds 4d and 4f for 24 h at various concentrations. After 24 h of treatment, cells were harvested and washed twice with 1× PBS before adding the lysis buffer (20 mM Tris pH 7.5, 150 mM Nacl, 1 mM Na2EDTA, 1 mM EGTA, 1% Triton X100, 1 μg/mL Leupeptin and 100 µM phenylmethylsulfonyl fluoride—PMSF) and kept it for 1 h on ice, with intermittent vortex mixing every 10 min. The samples were centrifuged at 13,000 rpm at 4 °C for 15 min and then the supernatants were transferred into new tubes. Total protein was measured by using Bio-Rad Bradford kit and then 35 µg of the total protein was run on a 12% SDS-PAGE and transferred to a nitrocellulose membrane. The membrane was blocked with 5% BSA in TBST (150 mM Nacl, 20 mM Tris base and 0.1% Tween 20) for 2 h at room temperature and then washed three times with TBST buffer. Then the membrane was incubated with the desired antibodies (p53, Bcl-2, Bax, caspase7 and β-actin) (1:200, Santa Cruz Biotecnology, Inc., Dallas, TX, USA) and kept on a rocker at 4 °C overnight. On the next day, the membrane was washed three times with TBST buffer and then incubated with horseradish peroxidase-conjugated secondary antibody (1:3000) for 1 h at room temperature. After incubation, membranes were washed three times with TBST buffer and then were ready for immunodetection. For immunodetection, membranes were incubated with ECL Western blotting detecting reagents (Amersaham Pharmacia Biotech Inc., Zurich, Switzerland) and then bands were obtained by exposing to X-ray films (Amersham).

[2] = tested on: MCF-7 (breast) cancer cells; assay: MTT cell viability assay, MCF-7; assay type: cell-based, human; conditions: Homo sapiens, MCF7, 48 h, average ± SD (n = 3)
Description: as §1, §2, §3

Bax = assay: Western blot, Bax protein; assay type: cell-based, human; conditions: MCF-7, 1.25, 2.5 and 5 μM, 24 h, vs control cells
Description: as §4, with “Among all caspases, caspase 7 is considered as one of the most crucial executioner caspases that mediate cell death, and its expression strongly correlates with apoptosis stimulation.” left out
MCF-7 cells were plated in six well plates at the density of 0.5 × 10^6 and kept for adherence for overnight. […] Total protein was measured by using Bio-Rad Bradford kit and then 35 µg of the total protein was run on a 12% SDS-PAGE and transferred to a nitrocellulose membrane. […] After incubation, membranes were washed three times with TBST buffer and then were ready for immunodetection. […]

| Compound | IC50 [1] [µM] | IC50 (A549 (lung) cancer cells; Homo sapiens, A549, 48 h) [µM] | late apoptotic cells (MCF-7 cells; 1.25 µM) [%] | late apoptotic cells (MCF-7 cells; 2.5 µM) [%] | late apoptotic cells (MCF-7 cells; 10 µM) [%] | caspase 7 protein expression (Western blot) (caspase 7; MCF-7, 1.25 μM) [fold] | caspase 7 protein expression (Western blot) (caspase 7; MCF-7, 2.5 μM) [fold] | caspase 7 protein expression (Western blot) (caspase 7; MCF-7, 5 μM) [fold] | IC50 [2] [µM] | expression of Bax protein (Western blot, in words) (Bax) | IC50 (A549 (lung) cancer cells; 48 h) [µM] | early apoptotic cells (MCF-7 cells; 1.25 µM) [%] | early apoptotic cells (MCF-7 cells; 2.5 µM) [%] | early apoptotic cells (MCF-7 cells; 5 µM) [%] |
| --- | --- | --- | --- | --- | --- | --- | --- | --- | --- | --- | --- | --- | --- | --- |
| CCc1cccc(NC(=O)CNS(=O)(=O)c2ccc(-n3c(SCC(=O)Nc4cccc(CC)c4)nc4c(OC)cccc4c3=O)cc2)c1 [Compound 4f, N-(3-ethylphenyl)-2-((3-(4-(N-(2-((3-ethylphenyl)amino)-2-oxoethyl)sulfamoyl)-phe-nyl)-8-methoxy-4-oxo-3,4-dihydroquinazolin-2yl)thio)acetamide] | 9.76 ± 1.68 | 10.1 ± 0.24 | 15.4 ± 0.28 | 31.05 ± 1.06 | 52.4 ± 0.28 | 1.14 | 1.2 | 1.5 | 5 ± 0.24 | markedly increased | – | – | – | – |
| COc1cccc2c(=O)n(-c3ccc(S(=O)(=O)NCC(=O)Nc4ccc(C)cc4)cc3)c(SCC(=O)Nc3ccc(C)cc3)nc12 [Compound 4d] | 6.87 ± 0.62 | 5.6 | – | – | – | 3 | 3.3 | 3.9 | 2.5 ± 0.2 | markedly increased | 6.6 ± 0.22 | 44.45 ± 1.06 | 67.55 ± 1.34 | 83.75 ± 2.19 |
